Structures can show the parent of a compound that is named as a salt. Values belong to the compound of their own block, whether it stands above or below them.
Tests used:
Format in all cases: biochemical
TYK2 = TYK2 (Homo sapiens, UniProt P29597); test: TYK2 kinase inhibition (Table A1)
[1] = biological target: T1, human JAK3 (a.a. 781-1124) (Homo sapiens, UniProt P52333); test: In vitro JAK kinase assay (HTRF, phosphorylation of a biotinylated peptide), JAK3; details: method AA1 (3 μM ATP) or AA2 (1000 μM ATP), not stated per value
T1 construct: JAK3 (a.a. 781-1124); His tag (N); made in house; host or cells: insect cells (baculovirus)
T1 sequence (P52333 781-1124): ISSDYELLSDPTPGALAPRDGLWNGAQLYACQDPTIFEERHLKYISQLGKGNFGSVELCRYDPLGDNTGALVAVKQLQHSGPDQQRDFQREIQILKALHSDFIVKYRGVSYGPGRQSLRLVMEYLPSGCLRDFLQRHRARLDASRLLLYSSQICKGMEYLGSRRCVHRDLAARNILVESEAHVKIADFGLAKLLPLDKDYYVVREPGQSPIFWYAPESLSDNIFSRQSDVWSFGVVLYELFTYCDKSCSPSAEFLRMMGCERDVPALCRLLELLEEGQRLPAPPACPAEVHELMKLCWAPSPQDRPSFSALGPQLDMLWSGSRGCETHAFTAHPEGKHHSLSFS
Outline: (§1)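 Phosphorylation of a biotinylated peptide by the JAK kinase domain, detected by HTRF with Eu-Py20 and SA-APC. ATP was 90 μM for JAK1, 30 μM for JAK2 and 3 μM for JAK3. Reactions ran 1 h at room temperature and were stopped with EDTA, followed by 40 min antibody binding.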

[2] = biological target: T2, Recombinant Human Anaplastic Lymphoma Kinase (Homo sapiens, UniProt Q9UM73); test: ALK HTRF kinase assay; details: compound at 500 nM or 1 mM; 90 μM ATP
T2 construct: purchased Invitrogen, Carlsbad, Calif
T2 sequence (Q9UM73 19-1620): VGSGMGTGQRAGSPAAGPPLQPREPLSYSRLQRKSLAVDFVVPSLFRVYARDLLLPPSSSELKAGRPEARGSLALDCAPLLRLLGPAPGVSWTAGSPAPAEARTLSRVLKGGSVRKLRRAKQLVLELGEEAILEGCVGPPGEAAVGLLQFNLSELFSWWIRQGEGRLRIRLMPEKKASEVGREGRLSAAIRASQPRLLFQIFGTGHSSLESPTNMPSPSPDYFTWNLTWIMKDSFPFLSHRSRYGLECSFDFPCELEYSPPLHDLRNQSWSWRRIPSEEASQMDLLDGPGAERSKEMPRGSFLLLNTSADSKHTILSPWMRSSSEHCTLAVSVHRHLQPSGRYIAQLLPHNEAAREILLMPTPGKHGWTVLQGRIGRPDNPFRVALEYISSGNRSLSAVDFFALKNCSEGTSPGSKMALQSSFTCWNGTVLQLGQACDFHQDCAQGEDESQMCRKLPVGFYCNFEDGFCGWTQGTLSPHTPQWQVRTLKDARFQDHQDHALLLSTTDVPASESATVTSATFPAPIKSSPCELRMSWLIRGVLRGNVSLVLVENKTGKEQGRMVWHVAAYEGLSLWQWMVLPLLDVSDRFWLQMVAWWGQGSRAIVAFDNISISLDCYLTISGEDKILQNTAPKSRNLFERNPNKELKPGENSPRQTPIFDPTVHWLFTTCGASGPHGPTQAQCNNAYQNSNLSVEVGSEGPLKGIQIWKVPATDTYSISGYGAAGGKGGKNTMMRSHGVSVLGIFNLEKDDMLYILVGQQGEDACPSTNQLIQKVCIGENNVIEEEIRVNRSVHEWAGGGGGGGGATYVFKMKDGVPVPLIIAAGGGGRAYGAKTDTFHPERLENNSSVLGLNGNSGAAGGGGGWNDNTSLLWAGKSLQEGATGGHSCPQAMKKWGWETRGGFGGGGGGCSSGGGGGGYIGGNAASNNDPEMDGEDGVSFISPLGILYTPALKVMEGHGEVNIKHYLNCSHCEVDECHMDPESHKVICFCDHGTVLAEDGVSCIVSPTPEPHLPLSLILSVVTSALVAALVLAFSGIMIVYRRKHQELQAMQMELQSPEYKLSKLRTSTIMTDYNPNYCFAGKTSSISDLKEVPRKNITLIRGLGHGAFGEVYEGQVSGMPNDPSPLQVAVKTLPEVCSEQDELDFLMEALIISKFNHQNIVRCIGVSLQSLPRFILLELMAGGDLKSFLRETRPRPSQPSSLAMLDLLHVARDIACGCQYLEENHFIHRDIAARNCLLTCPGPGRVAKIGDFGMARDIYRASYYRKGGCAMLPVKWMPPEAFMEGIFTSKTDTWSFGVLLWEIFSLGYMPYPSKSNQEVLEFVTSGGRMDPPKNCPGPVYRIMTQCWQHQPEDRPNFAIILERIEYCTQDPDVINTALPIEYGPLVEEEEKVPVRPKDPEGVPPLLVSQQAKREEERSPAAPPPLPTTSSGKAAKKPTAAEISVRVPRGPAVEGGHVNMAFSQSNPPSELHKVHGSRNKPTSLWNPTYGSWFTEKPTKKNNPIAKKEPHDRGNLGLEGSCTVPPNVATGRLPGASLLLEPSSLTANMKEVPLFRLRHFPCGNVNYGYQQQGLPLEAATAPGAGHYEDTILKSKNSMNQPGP
Outline: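 Compounds were incubated with recombinant human ALK and a biotin-tagged peptide substrate. Product was captured with streptavidin-APC and probed with a europium anti-phosphotyrosine antibody, and plates were read for time-resolved fluorescence. Dose-response data were fitted to derive IC50.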

[3] = biological target: T3, human JAK2 (a.a. 828-1132) (Homo sapiens, UniProt O60674); test: In vitro JAK kinase assay (HTRF, phosphorylation of a biotinylated peptide), JAK2; details: method AA1 (30 μM ATP) or AA2 (1000 μM ATP), not stated per value
T3 construct: JAK2 (a.a. 828-1132); His tag (N); made in house; host or cells: insect cells (baculovirus)
T3 sequence (O60674 828-1132): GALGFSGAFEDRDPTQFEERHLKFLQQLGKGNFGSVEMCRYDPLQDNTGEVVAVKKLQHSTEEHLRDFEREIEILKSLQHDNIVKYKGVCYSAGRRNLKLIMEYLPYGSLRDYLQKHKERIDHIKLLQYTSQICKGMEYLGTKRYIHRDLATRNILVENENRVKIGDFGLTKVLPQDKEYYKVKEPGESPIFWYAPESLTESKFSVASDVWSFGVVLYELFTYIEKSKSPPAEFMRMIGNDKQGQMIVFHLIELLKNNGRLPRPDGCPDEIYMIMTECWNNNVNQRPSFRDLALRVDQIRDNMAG
Outline: as §1

[4] = biological target: T4, human JAK1 (a.a. 837-1142) (Homo sapiens, UniProt P23458); test: In vitro JAK kinase assay (HTRF, phosphorylation of a biotinylated peptide), JAK1; details: method AA1 (90 μM ATP) or AA2 (1000 μM ATP), not stated per value; read-out: JAK1 IC50
T4 construct: human JAK1 (a.a. 837-1142); His tag (N); made in house; host or cells: insect cells (baculovirus)
T4 sequence (P23458 849-1154): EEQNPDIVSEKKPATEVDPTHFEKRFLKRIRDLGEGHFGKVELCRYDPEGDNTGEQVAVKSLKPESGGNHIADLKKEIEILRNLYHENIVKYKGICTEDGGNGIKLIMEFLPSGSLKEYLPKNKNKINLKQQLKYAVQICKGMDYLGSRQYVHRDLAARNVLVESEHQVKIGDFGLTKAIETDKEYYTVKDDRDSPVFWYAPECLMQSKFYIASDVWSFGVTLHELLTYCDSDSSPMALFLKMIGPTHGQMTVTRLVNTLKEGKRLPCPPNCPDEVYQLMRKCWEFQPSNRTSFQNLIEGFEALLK
Outline: as §1

TYK2, sequence (P29597 whole entry): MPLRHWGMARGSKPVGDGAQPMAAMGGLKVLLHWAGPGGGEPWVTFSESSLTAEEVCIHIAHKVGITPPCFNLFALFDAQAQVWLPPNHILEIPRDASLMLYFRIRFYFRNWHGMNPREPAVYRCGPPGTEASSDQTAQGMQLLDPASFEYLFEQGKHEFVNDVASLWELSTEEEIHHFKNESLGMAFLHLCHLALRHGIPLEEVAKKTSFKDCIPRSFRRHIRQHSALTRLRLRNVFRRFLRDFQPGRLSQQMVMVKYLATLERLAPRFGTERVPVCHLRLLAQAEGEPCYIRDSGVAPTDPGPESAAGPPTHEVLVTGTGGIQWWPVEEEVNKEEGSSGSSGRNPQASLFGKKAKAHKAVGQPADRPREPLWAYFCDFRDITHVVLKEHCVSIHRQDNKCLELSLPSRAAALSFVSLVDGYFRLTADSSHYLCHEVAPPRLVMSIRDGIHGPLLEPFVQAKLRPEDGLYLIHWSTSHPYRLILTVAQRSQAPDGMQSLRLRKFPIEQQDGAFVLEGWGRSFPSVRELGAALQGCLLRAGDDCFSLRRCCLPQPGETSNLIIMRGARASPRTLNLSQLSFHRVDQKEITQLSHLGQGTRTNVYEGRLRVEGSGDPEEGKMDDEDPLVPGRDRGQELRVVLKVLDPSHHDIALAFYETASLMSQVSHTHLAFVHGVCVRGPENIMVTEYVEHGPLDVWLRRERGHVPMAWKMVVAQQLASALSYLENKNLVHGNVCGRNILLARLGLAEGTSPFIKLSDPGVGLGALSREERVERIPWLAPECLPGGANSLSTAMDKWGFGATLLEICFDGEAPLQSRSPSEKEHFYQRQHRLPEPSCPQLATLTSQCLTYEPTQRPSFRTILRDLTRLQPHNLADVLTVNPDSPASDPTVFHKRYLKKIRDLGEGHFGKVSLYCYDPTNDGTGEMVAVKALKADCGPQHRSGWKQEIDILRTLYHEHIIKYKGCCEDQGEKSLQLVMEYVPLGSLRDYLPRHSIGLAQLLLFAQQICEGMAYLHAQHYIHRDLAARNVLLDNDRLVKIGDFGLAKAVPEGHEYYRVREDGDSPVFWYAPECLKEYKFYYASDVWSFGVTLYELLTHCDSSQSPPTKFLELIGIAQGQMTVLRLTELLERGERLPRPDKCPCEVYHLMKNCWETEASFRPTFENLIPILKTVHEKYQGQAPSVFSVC

SMILES: O=C(Nc1ccc2cc1CCc1cccc(c1)Nc1ncc(Cl)c(n1)N2)C1CCCN(C(=O)c2ccccc2)C1 (centres unmarked) [Example A48, 1-Benzoyl-N-[6-chloro-2,4,8,22-tetraazatetracyclo[14.3.1.1(3,7).1(9,13)]docosa-1(20),3(22),4,6,9(21),10,12,16,18-nonaen-12-yl]piperidine-3-carboxamide trifluoroacetate]
- IC50 (TYK2): 92 nM
- IC50 [1]: 56 nM
- ALK % of inhibition at a concentration of 500 nM or 1 mM [2]: 28%
- IC50 [3]: 13 nM
- IC50 [4]: 27 nM

SMILES: CCNC(=O)N1CCCC(C(=O)Nc2ccc3cc2CCc2cccc(c2)Nc2ncc(Cl)c(n2)N3)C1 (centres unmarked) [Example A49, N(3)-[6-Chloro-2,4,8,22-tetraazatetracyclo[14.3.1.1(3,7).1(9,13)]docosa-1(20),3(22),4,6,9(21),10,12,16,18-nonaen-12-yl]-N(1)-ethylpiperidine-1,3-dicarboxamide trifluoroacetate]
- IC50 (TYK2): 39 nM
- IC50 [1]: 11 nM
- ALK % of inhibition at a concentration of 500 nM or 1 mM [2]: 24%
- IC50 [3]: 7.5 nM
- IC50 [4]: 14 nM

SMILES: CC(=O)N1CC[C@@H](C(=O)Nc2ccc3cc2CCc2cccc(c2)Nc2ncc(Cl)c(n2)N3)C1 [Example A51, (3R)-1-Acetyl-N-[6-chloro-2,4,8,22-tetraazatetracyclo[14.3.1.1(3,7).1(9,13)]docosa-1(20),3(22),4,6,9(21),10,12,16,18-nonaen-12-yl]pyrrolidine-3-carboxamide trifluoroacetate]
- IC50 (TYK2): 21 nM
- IC50 [1]: 10 nM
- ALK % of inhibition at a concentration of 500 nM or 1 mM [2]: 30%
- IC50 [3]: 5 nM
- IC50 [4]: 13 nM

SMILES: O=C(Nc1ccc2cc1CCc1cccc(c1)Nc1ncc(Cl)c(n1)N2)[C@@H]1CCN(C(=O)c2ccccc2)C1 [Example A52, (3R)-1-Benzoyl-N-[6-chloro-2,4,8,22-tetraazatetracyclo[14.3.1.1(3,7).1(9,13)]docosa-1(20),3(22),4,6,9(21),10,12,16,18-nonaen-12-yl]pyrrolidine-3-carboxamide trifluoroacetate]
- IC50 (TYK2): 15 nM
- IC50 [1]: 7.8 nM
- ALK % of inhibition at a concentration of 500 nM or 1 mM [2]: 35%
- IC50 [3]: 4.5 nM
- IC50 [4]: 2.2 nM

SMILES: O=C(Nc1ccc2cc1CCc1cccc(c1)Nc1ncc(Cl)c(n1)N2)[C@@H]1CCN(C(=O)Nc2ccccc2)C1 [Example A54, (3R)—N(3)-[6-Chloro-2,4,8,22-tetraazatetracyclo[14.3.1.1(3,7).1(9,13)]docosa-1(20),3(22),4,6,9(21),10,12,16,18-nonaen-12-yl]-N(1)-phenylpyrrolidine-1,3-dicarboxamide trifluoroacetate]
- IC50 (TYK2): 12 nM
- IC50 [1]: 3.5 nM
- ALK % of inhibition at a concentration of 500 nM or 1 mM [2]: 54%
- IC50 [3]: 2.9 nM
- IC50 [4]: 4 nM

SMILES: CC(=O)N1CCC(CC(=O)Nc2ccc3cc2CCc2cccc(c2)Nc2ncc(Cl)c(n2)N3)CC1 [Example A55, 2-(1-Acetylpiperidin-4-yl)-N-[6-chloro-2,4,8,22-tetraazatetracyclo[14.3.1.1(3,7).1(9,13)]docosa-1(20),3(22),4,6,9(21),10,12,16,18-nonaen-12-yl]acetamide trifluoroacetate]
- IC50 (TYK2): 2.3 nM
- IC50 [1]: 54 nM
- ALK % of inhibition at a concentration of 500 nM or 1 mM [2]: 23%
- IC50 [3]: 2.4 nM
- IC50 [4]: 1.5 nM

SMILES: O=C(CC1CCN(C(=O)c2ccccc2)CC1)Nc1ccc2cc1CCc1cccc(c1)Nc1ncc(Cl)c(n1)N2 [Example A56, 2-(1-Benzoylpiperidin-4-yl)-N-[6-chloro-2,4,8,22-tetraazatetracyclo[14.3.1.1(3,7).1(9,13)]docosa-1(20),3(22),4,6,9(21),10,12,16,18-nonaen-12-yl]acetamide trifluoroacetate]
- IC50 (TYK2): 10 nM
- IC50 [1]: 90 nM
- ALK % of inhibition at a concentration of 500 nM or 1 mM [2]: 26%
- IC50 [3]: 7.3 nM
- IC50 [4]: 4.2 nM

SMILES: O=C(Nc1ccc2cc1CCc1cccc(c1)Nc1ncc(Cl)c(n1)N2)[C@@H]1CCN(C(=O)NC2CCCC2)C1 [Example A63, (3R)—N(3)-[6-Chloro-2,4,8,22-tetraazatetracyclo[14.3.1.1(3,7).1(9,13)]docosa-1(20),3(22),4,6,9(21),10,12,16,18-nonaen-12-yl]-N(1)-cyclopentylpyrrolidine-1,3-dicarboxamide trifluoroacetate]
- IC50 (TYK2): 13 nM
- IC50 [1]: 2.6 nM
- ALK % of inhibition at a concentration of 500 nM or 1 mM [2]: 29%
- IC50 [3]: 2.5 nM
- IC50 [4]: 9 nM

More lines, now with the values ahead:

- IC50 (TYK2): 21 nM
- IC50 [1]: 13 nM
- ALK % of inhibition at a concentration of 500 nM or 1 mM [2]: 37%
- IC50 [3]: 6.5 nM
- IC50 [4]: 2.4 nM
SMILES: O=C(Nc1ccc2cc1CCc1cccc(c1)Nc1ncc(Cl)c(n1)N2)C1CCCN(C(=O)Nc2ccccc2)C1 (centres unmarked) [Example A50, N(3)-[6-Chloro-2,4,8,22-tetraazatetracyclo[14.3.1.1(3,7).1(9,13)]docosa-1(20),3(22),4,6,9(21),10,12,16,18-nonaen-12-yl]-N(1)-phenylpiperidine-1,3-dicarboxamide trifluoroacetate]

- IC50 (TYK2): 14 nM
- IC50 [1]: 3.2 nM
- ALK % of inhibition at a concentration of 500 nM or 1 mM [2]: 35%
- IC50 [3]: 1.2 nM
- IC50 [4]: 6.1 nM
SMILES: CCNC(=O)N1CC[C@@H](C(=O)Nc2ccc3cc2CCc2cccc(c2)Nc2ncc(Cl)c(n2)N3)C1 [Example A53, (3R)—N(3)-[6-Chloro-2,4,8,22-tetraazatetracyclo[14.3.1.1(3,7).1(9,13)]docosa-1(20),3(22),4,6,9(21),10,12,16,18-nonaen-12-yl]-N(1)-ethylpyrrolidine-1,3-dicarboxamide trifluoroacetate]

- IC50 (TYK2): 8.8 nM
- IC50 [1]: 60 nM
- ALK % of inhibition at a concentration of 500 nM or 1 mM [2]: 24%
- IC50 [3]: 7.3 nM
- IC50 [4]: 5.5 nM
SMILES: CCNC(=O)N1CCC(CC(=O)Nc2ccc3cc2CCc2cccc(c2)Nc2ncc(Cl)c(n2)N3)CC1 [Example A57, 4-(2-{[6-Chloro-2,4,8,22-tetraazatetracyclo[14.3.1.1(3,7).1(9,13)]docosa-1(20),3(22),4,6,9(21),10,12,16,18-nonaen-12-yl]amino}-2-oxoethyl)-N-ethylpiperidine-1-carboxamide trifluoroacetate]

- IC50 (TYK2): 9.9 nM
- IC50 [1]: 22 nM
- ALK % of inhibition at a concentration of 500 nM or 1 mM [2]: 38%
- IC50 [3]: 1.1 nM
- IC50 [4]: 0.2 nM
SMILES: O=C(CC1CCN(C(=O)Nc2ccccc2)CC1)Nc1ccc2cc1CCc1cccc(c1)Nc1ncc(Cl)c(n1)N2 [Example A58, 4-(2-{[6-Chloro-2,4,8,22-tetraazatetracyclo[14.3.1.1(3,7).1(9,13)]docosa-1(20),3(22),4,6,9(21),10,12,16,18-nonaen-12-yl]amino}-2-oxoethyl)-N-phenylpiperidine-1-carboxamide trifluoroacetate]

- IC50 (TYK2): 15 nM
- IC50 [1]: 19 nM
- ALK % of inhibition at a concentration of 500 nM or 1 mM [2]: 39%
- IC50 [3]: 6.9 nM
- IC50 [4]: 26 nM
SMILES: CCNC(=O)N1CCC(C(=O)Nc2ccc3cc2CCc2cccc(c2)Nc2ncc(Cl)c(n2)N3)CC1 [Example A59, N(4)-[6-Chloro-2,4,8,22-tetraazatetracyclo[14.3.1.1(3,7).1(9,13)]docosa-1(20),3(22),4,6,9(21),10,12,16,18-nonaen-12-yl]-N(1)-ethylpiperidine-1,4-dicarboxamide trifluoroacetate]

- IC50 (TYK2): 22 nM
- IC50 [1]: 14 nM
- ALK % of inhibition at a concentration of 500 nM or 1 mM [2]: 28%
- IC50 [3]: 6.5 nM
- IC50 [4]: 31 nM
SMILES: CCOC(=O)CNC(=O)N1CCC(C(=O)Nc2ccc3cc2CCc2cccc(c2)Nc2ncc(Cl)c(n2)N3)CC1 [Example A60, Ethyl ({[4-({[6-chloro-2,4,8,22-tetraazatetracyclo[14.3.1.1(3,7).1(9,13)]docosa-1(20),3(22),4,6,9(21),10,12,16,18-nonaen-12-yl]amino}carbonyl)piperidin-1-yl]carbonyl}amino)acetate trifluoroacetate]

- IC50 (TYK2): 22 nM
- IC50 [1]: 16 nM
- ALK % of inhibition at a concentration of 500 nM or 1 mM [2]: 41%
- IC50 [3]: 11 nM
- IC50 [4]: 29 nM
SMILES: O=C(Nc1ccc2cc1CCc1cccc(c1)Nc1ncc(Cl)c(n1)N2)C1CCN(C(=O)NC2CCCC2)CC1 [Example A61, N(4)-[6-Chloro-2,4,8,22-tetraazatetracyclo[14.3.1.1(3,7).1(9,13)]docosa-1(20),3(22),4,6,9(21),10,12,16,18-nonaen-12-yl]-N(1)-cyclopentylpiperidine-1,4-dicarboxamide trifluoroacetate]

- IC50 (TYK2): 12 nM
- IC50 [1]: 9.1 nM
- ALK % of inhibition at a concentration of 500 nM or 1 mM [2]: 26%
- IC50 [3]: 5.6 nM
- IC50 [4]: 7 nM
SMILES: O=C(Nc1ccc2cc1CCc1cccc(c1)Nc1ncc(Cl)c(n1)N2)C1CCCN(C(=O)NC2CCCC2)C1 (centres unmarked) [Example A62, N(3)-[6-Chloro-2,4,8,22-tetraazatetracyclo[14.3.1.1(3,7).1(9,13)]docosa-1(20),3(22),4,6,9(21),10,12,16,18-nonaen-12-yl]-N(1)-cyclopentylpiperidine-1,3-dicarboxamide trifluoroacetate]

Reference: patent US8871753B2, “Macrocyclic compounds and their use as kinase inhibitors” (Incyte Corporation, priority 2008, dated 2014)
